From paper PMC9196953 (Drug development research, 1999)
Like-named read-outs stand apart in the source and are kept apart here.

Experiments:
human A2B receptors = target: T1, human A2B receptors (Homo sapiens, UniProt P29275); assay: Binding at human A2B receptors expressed in HEK-293 cells vs [3H]ZM241385; details: for rA1/hA2B: ratio of Ki rat A1 to Ki human A2B
T1 construct: expressed in transfected cells; host or cells: HEK-293
T1 sequence (P29275 1-332): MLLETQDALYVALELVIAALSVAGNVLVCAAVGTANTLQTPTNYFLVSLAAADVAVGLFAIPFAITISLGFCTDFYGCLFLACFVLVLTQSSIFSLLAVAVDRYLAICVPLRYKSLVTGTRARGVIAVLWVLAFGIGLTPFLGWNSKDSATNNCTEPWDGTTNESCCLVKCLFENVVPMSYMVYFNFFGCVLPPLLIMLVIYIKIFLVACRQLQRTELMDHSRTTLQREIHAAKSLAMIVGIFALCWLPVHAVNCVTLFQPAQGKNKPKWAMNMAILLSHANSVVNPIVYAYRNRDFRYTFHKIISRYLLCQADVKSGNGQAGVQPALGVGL
Protocol: The plasmid was amplified in competent JM109 cells and plasmid DNA isolated using Wizard Megaprep columns (Promega Corp., Madison, WI).
Colonies were selected by growth of cells in 0.6 mg/mL G418. Transfected cells were maintained in DMEM supplemented with Hams F12 nutrient mixture (1/1), 10% newborn calf serum, 2 mM glutamine, and containing 50 IU/mL penicillin, 50 μg/mL streptomycin, and 0.2 mg/mL Geneticin (G418, Boehringer Mannheim, Indianapolis, IN).
Confluent monolayers of HEK-A2B cells were washed with PBS followed by ice-cold Buffer A (10 mM HEPES, 10 mM EDTA, pH 7.4) with protease inhibitors ([…] benzamidine, […], and […] of each aprotinin, pepstatin, and leupeptin). The cells were homogenized in a Polytron (Brinkmann) for 20 sec, centrifuged at 30,000g, and the pellets washed twice with buffer HE (10 mM HEPES, 1 mM EDTA, pH 7.4 with protease inhibitors). The final pellet was resuspended in buffer HE, supplemented with 10% sucrose and frozen in aliquots at −80°C. For binding assays, membranes were thawed and diluted 5–10-fold with HE to a final protein concentration of approximately 1 mg/mL. […] After incubating for 20 min at room temperature, 50 mL of 10 mg/mL Na-metabisulfite in water was added the quench the reaction. The reaction products were applied to a C18 HPLC column using 4 mM phosphate, pH 6.0/methanol. […] The incubation time was 3 h at 21°C. […] Membranes were filtered on Whatman GF/C filters using a Brandell cell harvester (Gaithersburg, MD) and washed three times over 15–20 sec with ice-cold buffer (10 mM Tris, 1 mM MgCl2, pH 7.4). […] Data from replicate experiments are tabulated as means ± SEM.
At A2B receptors, two radioligand binding assays (Table 1) were used. […] In order to evaluate selectivity, selected derivatives were subjected to standard binding assays at A1, A2A, and A3 receptors.

human A3 receptors = target: T2, human A3 receptors (Homo sapiens, UniProt P0DMS8); assay: Binding at recombinant human A3 receptors expressed in HEK-293 cells vs [125I]ABA; details: recombinant human A3 in HEK-293 cells, read-out: Ki hA3
T2 construct: expressed in transfected cells; host or cells: HEK-293
T2 sequence (P0DMS8 1-318): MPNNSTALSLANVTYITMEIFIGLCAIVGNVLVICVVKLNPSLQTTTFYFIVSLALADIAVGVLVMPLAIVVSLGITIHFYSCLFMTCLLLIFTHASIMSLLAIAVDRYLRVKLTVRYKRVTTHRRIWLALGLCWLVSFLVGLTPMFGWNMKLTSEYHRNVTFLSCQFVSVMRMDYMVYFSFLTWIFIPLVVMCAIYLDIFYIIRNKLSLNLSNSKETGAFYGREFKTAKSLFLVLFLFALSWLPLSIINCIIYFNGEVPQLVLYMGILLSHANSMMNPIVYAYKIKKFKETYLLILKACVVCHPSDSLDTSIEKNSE
Protocol: (§1) All nonradioactive compounds were initially dissolved in DMSO and diluted with buffer to the final concentration, where the amount of DMSO never exceeded 2%. Incubations were terminated by rapid filtration over Whatman GF/B filters using a Brandell cell harvester. The tubes were rinsed three times with 3 mL buffer each.
(§2) At least six different concentrations of competitor, spanning 3 orders of magnitude adjusted appropriately for the IC50 value of each compound, were used. IC50 values, calculated with the nonlinear regression method implemented in Graph-Pad Prism (San Diego, CA) were converted to apparent Ki values as described by [Linden [1982]]. Hill coefficients of the tested compounds were in the range of 0.8–1.1.
(§3) At A2B receptors, two radioligand binding assays (Table 1) were used. Ki values of xanthine derivatives were determined in displacement of binding of the non-selective radioligands […], 8 (4-(2-[7-amino-2-{furyl}{1,2,4}triazolo{2,3-a}{1,3,5}tr nzyl)-8-phenyloxyacetate-1-propyl-xanthine), at human A2B receptors expressed in HEK-293 cell membranes [[Linden and Jacobson, 1998]]. In order to evaluate selectivity, selected derivatives were subjected to standard binding assays at A1, A2A, and A3 receptors. The initial screening utilized rat brain A1/A2A receptors (with radioligands [^3H]R-PIA and [^3H]CGS-21680), and selected compounds were examined at the recombinant human subtypes (Table 1), using [^3H]CPX ([^3H]8-cyclopentyl-1,3-dipropylxanthine) and ^125I-ZM 241385, ^125I-4-(2-[7-amino-2-[2-furyl][1,2,4]triazolo[2,3-a][1,3,5]triazin-5-yl-amino]ethyl)phenol) [[Palmer et al., 1996]].

rat A1 receptors = target: T3, rat A1 receptors (Rattus norvegicus, UniProt P25099); assay: Displacement of [3H]R-PIA binding to A1 receptors in rat brain membranes; details: read-out: Ki rA1
T3 construct: to A1 receptors from rat cerebral cortical membranes; from tissue; host or cells: rat cerebral cortical membranes
T3 sequence (P25099 1-326): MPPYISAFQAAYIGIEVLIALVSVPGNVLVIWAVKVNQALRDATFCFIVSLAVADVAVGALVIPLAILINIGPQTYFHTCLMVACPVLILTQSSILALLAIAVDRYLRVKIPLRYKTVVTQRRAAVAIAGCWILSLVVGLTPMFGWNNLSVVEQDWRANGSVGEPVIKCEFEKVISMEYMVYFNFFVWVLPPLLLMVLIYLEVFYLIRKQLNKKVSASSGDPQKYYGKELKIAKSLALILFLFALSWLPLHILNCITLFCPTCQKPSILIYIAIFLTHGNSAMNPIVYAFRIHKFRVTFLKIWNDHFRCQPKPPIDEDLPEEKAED
Protocol: as §1, §2, §3

[1] = HEK-293 cells, vs [3H]ZM241385, read-out: Ki hA2B

| Structure (SMILES) | Ki (human A2B receptors; [1]) | rA1/hA2B (human A2B receptors) | Ki (human A3 receptors) | Ki (rat A1 receptors) | selectivity for human A2B vs. human A1 receptors (human A2B receptors; human A2B vs human A1) | selectivity for human A2B vs. human A2A receptors (human A2B receptors; human A2B vs human A2A) | selectivity for human A2B vs. human A3 receptors (human A2B receptors; human A2B vs human A3) | Ki (human A2B receptors; rounded values given in text, read-out: Ki at human A2B receptors) |
| --- | --- | --- | --- | --- | --- | --- | --- | --- |
| CCCn1c(=O)c2[nH]c(-c3ccc(OCC(=O)OCC)cc3)nc2n(CCC)c1=O [Compound 4b] | 18.7 ± 0.5 nM | 2.8 | 48.5 ± 0.8 nM |  |  |  |  |  |
| CCCn1c(=O)c2[nH]c(-c3ccc(OCC(=O)NNC(C)=O)cc3)nc2n(CCC)c1=O [Compound 4e, 8-[4-[(Carboxymethyl)oxy]phenyl]-1,3-di-(n-propyl)xanthine N-Acetylhydrazide] | 65.4 ± 6.5 nM | 0.10 | 30.9 ± 8.2 nM | 6.51 ± 1.24 nM |  |  |  |  |
| CCCn1c(=O)c2[nH]c(-c3ccc(OCC(=O)NNC(=O)CCC(=O)O)cc3)nc2n(CCC)c1=O [Compound 9, 8-[4-[(Carboxymethyl)oxy]phenyl]-1,3-di-(n-propyl)xanthine N-[(3-Carboxy)-n-propionyl]hydrazide] | 116 ± 10 nM |  | 173 ± 27 nM | 73.3 ± 22 nM |  |  |  |  |
| CCCn1c(=O)c2[nH]c(-c3ccc(OCC(=O)NN4C(=O)C(C)=C(C)C4=O)cc3)nc2n(CCC)c1=O [Compound 14, 8-[4-[(Carboxymethyl)oxy]phenyl]-1,3-di-(n-propyl)xanthine N,N-[(1,2-Dimethyl)maleyl]hydrazide] | 19.4 ± 6.2 nM | 0.57 | 670 ± 154 nM | 11.1 ± 2.4 nM | 160 fold | 100 fold | 35 fold | 19 nM |
| CCCn1c(=O)[nH]c(=O)c2[nH]c(-c3ccc(OCC(=O)NN4C(=O)C(C)=C(C)C4=O)cc3)nc21 [Compound 15, 8-[4-[(Carboxymethyl)oxy]phenyl]-1H-3-(n-propyl)xanthine N,N-[(1,2-Dimethyl)maleyl]hydrazide] | 1800 nM | 2.0 | 14200 nM | 3590 nM |  |  |  |  |
| CCCn1c(=O)c2[nH]c(-c3ccc(OCC(=O)NN4C(=O)c5ccccc5C4=O)cc3)nc2n(CCC)c1=O [Compound 21, 8-[4-[(Carboxymethyl)oxy]phenyl]-1,3-di-(n-propyl)xanthine N,N-Phthaloylhydrazide] | 64.4 ± 0.8 nM | 0.41 | 147 ± 21 nM | 26.3 ± 2.3 nM |  |  |  |  |
